Measured values as given in PMC9737981, “Molecular Hybridization Strategy on the Design, Synthesis, and Structural Characterization of Ferrocene-N-acyl Hydrazones as Immunomodulatory Agents” (Molecules, 2022).

How the values were obtained:
IFN-γ = IFN-γ production by splenocytes stimulated with concanavalin A (ELISA); format: cell-based, BALB/c mice; conditions: 10 µM; Con A 5 µg/mL; 24 h
Protocol: (§1) BALB/c splenocyte suspensions were prepared in a DMEM medium supplemented with FBS and gentamicin. Splenocytes (5 × 10^6 cells/well) were plated in 24-well plates, in triplicate, and stimulated or not with concanavalin A (Con A; 5 µg/mL, Sigma-Aldrich). To evaluate lymphocyte function, splenocytes were activated in the absence or presence of various concentrations of SintMed149 and SintMed150 (10, 20, and 40 µM). After 24 h of treatment, cell-free supernatants were collected and kept at −80 °C until use.
(§2) The dosage of cytokines IFN-γ, IL-1β, IL-2, IL-4, and TNFα was performed from the supernatant of peritoneal macrophages or splenocytes were determined by enzyme-linked immunosorbent assay (ELISA), using DuoSet kits from R&D Systems, according to the manufacturer’s instructions. Nitric oxide production was estimated in macrophage culture supernatants harvested at 24 h using the Griess method for nitrite quantification.

nitrite production = assay: Nitrite production by activated peritoneal macrophages (Griess); format: cell-based, BALB/c mice; conditions: LPS + IFN-γ
Protocol: (§3) Immortalized J774 macrophages (2 × 10^5 cells/well) or peritoneal macrophages (2 × 10^5 cells/well) were incubated in 96-well plates in a DMEM medium supplemented with 10% FBS and 50 µg/mL of gentamicin, in triplicate, stimulated or not with LPS (500 ng/mL) and IFN-γ (5 ng/mL), and treated or not with different concentrations of the evaluated ferrocenyl-N-acyl hydrazones. The cells were incubated for 4 or 24 h at 37 °C and 5% CO2. Cell-free supernatants were collected after 4 h (for TNFα measurement) and 24 h (for IL-1β, TNFα, and nitrite quantifications), and kept at −80 °C until use.
as §2

IL-1β = IL-1β production by peritoneal macrophages stimulated with LPS + IFN-γ (ELISA); format: cell-based, BALB/c mice
Protocol: as §3, §2

nitric oxide production = assay: Inhibition of nitric oxide (nitrite) production in J774 macrophages stimulated with LPS + IFN-γ (Griess); format: cell-based; conditions: for Inhibition of NO (%) Production at 40 μM: 24 h incubation with compounds and LPS plus IFN-γ
Protocol: as §3, §2

[1] = test system: LPS-induced endotoxic shock; assay: LPS-induced endotoxin shock (survival); format: in vivo, BALB/c mice; conditions: 25 mg/kg, lethal LPS, monitored 4 days
Protocol: Groups of five male BALB/c mice (4 weeks of age) were used for the LPS lethality assays. Mice were treated with different doses of SintMed150 (50 or 100 mg/kg), dexamethasone (25 mg/kg), or vehicle (solution containing 30% sorbitol, 10% Tween 80, and 60% saline), by intraperitoneal (i.p.) route. Ninety minutes later, animals were challenged with 600 µg of LPS (from serotype 0111:B4 Escherichia coli, Sigma-Aldrich) in saline, by i.p. route. The survival rate was then monitored daily during 4 days.

peritoneal macrophages = assay: Cytotoxicity to peritoneal macrophages activated with LPS + IFNγ (Alamar Blue); format: cell-based, BALB/c mice
Protocol: The second set of experiments was performed using peritoneal macrophages activated with LPS (500 ng/mL, Sigma-Aldrich) and IFNγ (5 ng/mL; Sigma-Aldrich).
Peritoneal exudate macrophages were obtained by washing, with a cold DMEM medium, the peritoneal cavity of BALB/c mice 4–5 days after injection of 3% thioglycolate (Sigma-Aldrich) in saline (1.5 mL per mouse). Cells were seeded into 96-well plates at a cell density of 1 × 10^5 cells/well in a DMEM medium supplemented with 10% FBS and 50 µg/mL of gentamicin and incubated for 24 h at 37 °C and 5% CO2. […] At the end of treatment, 20 µL/well of Alamar Blue (Invitrogen) were added to the plates for 10 h. Colorimetric readings were performed at 570 and 600 nm using a SpectraMax 190 Microplate Reader (Molecular Devices, Sunnyvale, CA, USA).

IL-2 = IL-2 production by splenocytes stimulated with concanavalin A (ELISA); format: cell-based, BALB/c mice; conditions: Con A 5 µg/mL, 24 h
Protocol: as §1, §2

IL-4 = IL-4 production by splenocytes stimulated with concanavalin A (ELISA); format: cell-based, BALB/c mice; conditions: Con A 5 µg/mL, 24 h
Protocol: as §1, §2

[2] = test system: carrageenan-induced acute peritonitis; assay: Carrageenan-induced acute peritonitis (neutrophil migration); format: in vivo, BALB/c mice; conditions: 25 mg/kg; compared to vehicle
Protocol: Next, animals were challenged with a 250 μL injection of carrageenan (1 mg/mL; intraperitoneal route). After 4 h, animals were euthanized and peritoneal exudates were harvested by peritoneal lavage using 2.5 mL of saline solution. Cells were centrifuged at 400× g for 10 min, at 4 °C. The pellet was resuspended in saline (1 mL). Total leukocytes in the peritoneal fluid were determined in a Neubauer chamber after dilution in Trypan blue stain. Differential counting of neutrophils was carried out in rapid panotype-stained cytospin preparations. A differential count of 300 cells was made in a blinded fashion and according to standard morphologic criteria.

TNFα = TNFα production by peritoneal macrophages stimulated with LPS + IFN-γ (ELISA); format: cell-based, BALB/c mice
Protocol: as §3, §2

J774 macrophages = assay: Cytotoxicity to J774 macrophages (Alamar Blue); format: cell-based; conditions: 72 h, read-out: CC50 (µM) JJ74
Protocol: J774 macrophages were seeded into 96-well plates at a cell density of 1 × 10^4 cells/well in a DMEM medium supplemented with 10% fetal bovine serum (FBS; GIBCO) and 50 µg/mL of gentamicin (Life Technologies, Carlsbad, CA, USA) and incubated for 24 h at 37 °C and 5% CO2. After that time, each compound was added in six concentrations (50–1.56 µM), in triplicate, and incubated for 72 h. At the end of treatment, 20 µL/well of Alamar Blue (Invitrogen) was added to the plates for 4 h. […]
As a positive control, gentian violet was used at concentrations ranging from 0.04 to 10 µM. CC50 values were calculated using data from three independent experiments.
To determine the cytotoxicity concentration of 50% of J774 macrophages (CC50), we used non-linear regression. One-way analysis of variance and Newman–Keuls multiple comparison tests were employed by using Graph Pad Prism version 8.0.1 (Graph Pad Software; San Diego, CA, USA). Differences were considered significant when the values of p were < 0.05. The data are representative of at least two or three experiments.

## C[C@@H]1C[C@H]2[C@@H]3CCC4=CC(=O)C=C[C@]4(C)[C@@]3(F)[C@@H](O)C[C@]2(C)[C@@]1(O)C(=O)CO [Dexamethasone, reference compound]
IFN-γ
  IFN-γ levels: significantly reduced
Nitrite production; 10 µM
  Nitrite production: promoted the reduction
IL-1β; 10 µM
  IL-1β production: promoted the reduction
Nitric oxide production; Mus musculus, J774, 24 h incubation with compounds and LPS plus IFN-γ, read-out: Inhibition of NO (%) Production at 40 μM
  inhibition at 40 µM: 64.9%
[1]
  Survival rate: 83.3%
Peritoneal macrophages; 40 µM
  Cytotoxicity (cell viability) in peritoneal macrophages: not cytotoxic
IL-2; 10 µM
  IL-2 levels: significantly reduced
IL-4; 10 µM
  IL-4 levels: significantly reduced
[2]
  Reduction in neutrophil migration: 55%
TNFα; 10 µM
  TNF production: promoted the reduction

## O=C(N/N=C/[c-]1cccc1)c1ccccc1.[Fe+2].c1cc[cH-]c1 [SintMed141, (E)-N′-(Ferrocenylmethylidene)benzohydrazide]
J774 macrophages
  CC50: > 50 µM
Nitric oxide production
  Inhibition of NO (%) Production at 40 μM: 19.7 (±3.0) %

## O=C(N/N=C/[c-]1cccc1)c1ccccc1Cl.[Fe+2].c1cc[cH-]c1 [SintMed142, (E)-N′-(Ferrocenylmethylidene)-2-chlorobenzohydrazide]
J774 macrophages
  CC50: > 50 µM
Nitric oxide production
  Inhibition of NO (%) Production at 40 μM: 49.3 (±0.8) %

## O=C(N/N=C/[c-]1cccc1)c1ccco1.[Fe+2].c1cc[cH-]c1 [SintMed143, (E)-N′-(Ferrocenylmethylidene)furan-2-ylcarbohydrazide]
J774 macrophages
  CC50: > 50 µM
Nitric oxide production
  Inhibition of NO (%) Production at 40 μM: 49.2 (±1.9) %

## N#Cc1ccc(C(=O)N/N=C/[c-]2cccc2)cc1.[Fe+2].c1cc[cH-]c1 [SintMed144, (E)-N′-(Ferrocenylmethylidene)-4-cyanobenzohydrazide]
J774 macrophages
  CC50: > 50 µM
Nitric oxide production
  Inhibition of NO (%) Production at 40 μM: 55.2 (±0.6) %

## O=C(N/N=C/[c-]1cccc1)c1ccc2ccccc2n1.[Fe+2].c1cc[cH-]c1 [SintMed145, (E)-N′-(Ferrocenylmethylidene)quinolin-2-ylcarbohydrazide]
J774 macrophages
  CC50: > 50 µM
Nitric oxide production
  Inhibition of NO (%) Production at 40 μM: 49.6 (±2.6) %

## CC(C)(C)c1cc(C(=O)N/N=C/[c-]2cccc2)cc(C(C)(C)C)c1O.[Fe+2].c1cc[cH-]c1 [SintMed146, (E)-N′-(Ferrocenylmethylidene)-3,5-tert-butyl-4-hydroxybenzohydrazide]
J774 macrophages
  CC50: > 50 µM
Nitric oxide production
  Inhibition of NO (%) Production at 40 μM: 14.4 (±2.2) %

## O=C(N/N=C/[c-]1cccc1)c1ccc(C(F)(F)F)cc1.[Fe+2].c1cc[cH-]c1 [SintMed147, (E)-N′-(Ferrocenylmethylidene)-4-(trifluoromethyl)benzohydrazide]
J774 macrophages
  CC50: > 50 µM
Nitric oxide production
  Inhibition of NO (%) Production at 40 μM: 59.9 (±0.3) %

## Cc1ccccc1C(=O)N/N=C/[c-]1cccc1.[Fe+2].c1cc[cH-]c1 [SintMed148, (E)-N′-(Ferrocenylmethylidene)-2-methylbenzohydrazide]
J774 macrophages
  CC50: > 50 µM
Nitric oxide production
  Inhibition of NO (%) Production at 40 μM: 56.6 (±2.1) %

## O=C(N/N=C/[c-]1cccc1)c1ccccc1Br.[Fe+2].c1cc[cH-]c1 [SintMed149, (E)-N′-(Ferrocenylmethylidene)-2-bromobenzohydrazide]
Nitrite production; 10, 20 and 40 µM, p < 0.05
  Nitrite production: inhibited, in a concentration-dependent manner
J774 macrophages
  CC50: > 50 µM
IL-1β; 10, 20 and 40 µM, 24 h, p < 0.05
  IL-1β production: inhibitory effect
Nitric oxide production
  Inhibition of NO (%) Production at 40 μM: 71.7 (±3.6) %
Peritoneal macrophages; all concentrations tested (10, 20, 40 µM)
  Cytotoxicity (cell viability) in peritoneal macrophages: not cytotoxic
IL-2; 10, 20, 40 µM
  IL-2 levels: significant and concentration-dependent reduction
IL-4; 10, 20, 40 µM
  IL-4 levels: did not significantly reduce
TNFα; 10, 20 and 40 µM, 4 h, p < 0.05
  TNF production: inhibitory effect

## O=C(N/N=C/[c-]1cccc1)c1cc(O)c(O)c(O)c1.[Fe+2].c1cc[cH-]c1 [SintMed151, (E)-N′-(Ferrocenylmethylidene)-3,4,5-trihydroxybenzohydrazide]
J774 macrophages
  CC50: > 50 µM
Nitric oxide production
  Inhibition of NO (%) Production at 40 μM: 25.2 (±2.1) %

## COc1cc(C(=O)N/N=C/[c-]2cccc2)cc(OC)c1OC.[Fe+2].c1cc[cH-]c1 [SintMed152, (E)-N′-(Ferrocenylmethylidene)-3,4,5-trimethoxybenzohydrazide]
J774 macrophages
  CC50: > 50 µM
Nitric oxide production
  Inhibition of NO (%) Production at 40 μM: 55.5 (±1.7) %

## COc1cc(C(=O)N/N=C/[c-]2cccc2)cc(OC)c1OC.[Fe+2].c1cc[cH-]c1 [SintMed153, (E)-N′-(Ferrocenylmethylidene)-3,4,5-trimethoxybenzohydrazide]
J774 macrophages
  CC50: > 50 µM
Nitric oxide production
  Inhibition of NO (%) Production at 40 μM: 43.7 (±3.3) %

## O=C(N/N=C/[c-]1cccc1)c1cccc(Cl)c1.[Fe+2].c1cc[cH-]c1 [SintMed154, (E)-N′-(Ferrocenylmethylidene)-3-chlorobenzohydrazide]
J774 macrophages
  CC50: > 50 µM
Nitric oxide production
  Inhibition of NO (%) Production at 40 μM: 45.2 (±2.1) %

## O=C(N/N=C/[c-]1cccc1)c1cccc2ccccc12.[Fe+2].c1cc[cH-]c1 [SintMed155, (E)-N′-(Ferrocenylmethylidene)-1-naphtylcarbohydrazide]
J774 macrophages
  CC50: > 50 µM
Nitric oxide production
  Inhibition of NO (%) Production at 40 μM: 35.6 (±0.7) %

## COc1ccc(C(=O)N/N=C/[c-]2cccc2)c(OC)c1.[Fe+2].c1cc[cH-]c1 [SintMed156, (E)-N′-(Ferrocenylmethylidene)-2,4-dimethoxybenzohydrazide]
J774 macrophages
  CC50: > 50 µM
Nitric oxide production
  Inhibition of NO (%) Production at 40 μM: 46.7 (±3.0) %
